In ChEMBL document CHEMBL3045552, “In vivo screening of diarylimidazoles as anticonvulsant agents” (Med Chem Res, 2012):
The source made the active and inactive calls. The calls are words filed in the database; no cut-off is given here.

What was measured:
Mus musculus [1] = assay: Anticonvulsant activity in Mus musculus CF1 albino (mouse) assessed as protection against maximal electroshock-induced seizures at 300 mg/kg, ip measured at 4 hr; type: functional, organism-based; design: dose 300 mg/kg
Mus musculus [2] = assay: Anticonvulsant activity in Mus musculus CF1 albino (mouse) assessed as protection against maximal electroshock-induced seizures at 100 mg/kg, ip measured at 0.5 hr; type: functional, organism-based; design: dose 100 mg/kg
Mus musculus [3] = assay: Anticonvulsant activity in ip dosed Mus musculus CF1 albino (mouse) assessed as protection against subcutaneous metrazol-induced seizures measured at 0.25 hr; type: functional
Mus musculus [4] = assay: Neurotoxicity in Mus musculus CF1 albino (mouse) assessed as minimal motor impairment at 300 mg/kg, ip measured at 4 hr by rotorod test; type: toxicity, organism-based; design: dose 300 mg/kg, route intraperitoneal; details: in vivo
Mus musculus [5] = assay: Anticonvulsant activity in Mus musculus CF1 albino (mouse) assessed as protection against maximal electroshock-induced seizures at 300 mg/kg, ip measured at 0.5 hr; type: functional, organism-based; design: dose 300 mg/kg
Mus musculus [6] = assay: Anticonvulsant activity in Mus musculus CF1 albino (mouse) assessed as protection against maximal electroshock-induced seizures at 30 mg/kg, ip measured at 4 hr; type: functional, organism-based; design: dose 30 mg/kg
Mus musculus [7] = assay: Neurotoxicity in Mus musculus CF1 albino (mouse) assessed as minimal motor impairment at 30 mg/kg, ip measured at 0.5 hr by rotorod test; type: toxicity, organism-based; design: dose 30 mg/kg, route intraperitoneal; details: in vivo
Mus musculus [8] = assay: Anticonvulsant activity in Mus musculus CF1 albino (mouse) assessed as protection against subcutaneous metrazol-induced seizures at 100 mg/kg, ip measured at 4 hr; type: functional, organism-based; design: dose 100 mg/kg
Mus musculus [9] = assay: Anticonvulsant activity in Mus musculus CF1 albino (mouse) assessed as protection against subcutaneous metrazol-induced seizures at 30 mg/kg, ip measured at 4 hr; type: functional, organism-based; design: dose 30 mg/kg
Mus musculus [10] = assay: Neurotoxicity in Mus musculus CF1 albino (mouse) assessed as minimal motor impairment at 100 mg/kg, ip measured at 0.5 hr by rotorod test; type: toxicity, organism-based; design: dose 100 mg/kg, route intraperitoneal; details: in vivo
Mus musculus [11] = assay: Neurotoxicity in Mus musculus CF1 albino (mouse) assessed as minimal motor impairment at 100 mg/kg, ip measured at 4 hr by rotorod test; type: toxicity, organism-based; design: dose 100 mg/kg, route intraperitoneal; details: in vivo
[12] = Protective index, ratio of TD50 for neurotoxicity in ip dosed Mus musculus CF1 albino (mouse) to ED50 for protection against maximal electroshock-induced seizures in ip dosed Mus musculus CF1 albino (mouse); type: toxicity, organism-based; details: in vivo, read-out: Ratio TD50/ED50
Mus musculus [13] = assay: Anticonvulsant activity in Mus musculus CF1 albino (mouse) assessed as protection against electrically-induced seizure at 100 mg/kg, ip measured at 4 hr by 6Hz psychomotor seizure test; type: functional, organism-based; design: dose 100 mg/kg
Mus musculus [14] = assay: Anticonvulsant activity in Mus musculus CF1 albino (mouse) assessed as protection against subcutaneous metrazol-induced seizures at 100 mg/kg, ip measured at 0.5 hr; type: functional, organism-based; design: dose 100 mg/kg
Mus musculus [15] = assay: Anticonvulsant activity in ip dosed Mus musculus CF1 albino (mouse) assessed as protection against maximal electroshock-induced seizures measured at 0.25 hr; type: functional
Mus musculus [16] = assay: Anticonvulsant activity in Mus musculus CF1 albino (mouse) assessed as protection against subcutaneous metrazol-induced seizures at 30 mg/kg, ip measured at 0.5 hr; type: functional, organism-based; design: dose 30 mg/kg
Mus musculus [17] = assay: Anticonvulsant activity in Mus musculus CF1 albino (mouse) assessed as protection against maximal electroshock-induced seizures at 30 mg/kg, ip measured at 0.5 hr; type: functional, organism-based; design: dose 30 mg/kg
[18] = Protective index, ratio of TD50 for neurotoxicity in ip dosed Mus musculus CF1 albino (mouse) to ED50 for protection against subcutaneous metrazol-induced seizures in ip dosed Mus musculus CF1 albino (mouse); type: toxicity, organism-based; details: in vivo, read-out: Ratio TD50/ED50
Mus musculus [19] = assay: Anticonvulsant activity in Mus musculus CF1 albino (mouse) assessed as protection against electrically-induced seizure at 100 mg/kg, ip measured at 2 hr by 6Hz psychomotor seizure test; type: functional, organism-based; design: dose 100 mg/kg
Mus musculus [20] = assay: Anticonvulsant activity in Mus musculus CF1 albino (mouse) assessed as protection against subcutaneous metrazol-induced seizures at 300 mg/kg, ip measured at 4 hr; type: functional, organism-based; design: dose 300 mg/kg
Mus musculus [21] = assay: Anticonvulsant activity in Mus musculus CF1 albino (mouse) assessed as protection against subcutaneous metrazol-induced seizures at 300 mg/kg, ip measured at 0.5 hr; type: functional, organism-based; design: dose 300 mg/kg
Mus musculus [22] = assay: Neurotoxicity in Mus musculus CF1 albino (mouse) assessed as minimal motor impairment at 30 mg/kg, ip measured at 4 hr by rotorod test; type: toxicity, organism-based; design: dose 30 mg/kg, route intraperitoneal; details: in vivo
Mus musculus [23] = assay: Neurotoxicity in Mus musculus CF1 albino (mouse) assessed as minimal motor impairment at 300 mg/kg, ip measured at 0.5 hr by rotorod test; type: toxicity, organism-based; design: dose 300 mg/kg, route intraperitoneal; details: in vivo
Mus musculus [24] = assay: Anticonvulsant activity in Mus musculus CF1 albino (mouse) assessed as protection against electrically-induced seizure at 100 mg/kg, ip measured at 1 hr by 6Hz psychomotor seizure test; type: functional, organism-based; design: dose 100 mg/kg
Mus musculus [25] = assay: Anticonvulsant activity in Mus musculus CF1 albino (mouse) assessed as protection against maximal electroshock-induced seizures at 100 mg/kg, ip measured at 4 hr; type: functional, organism-based; design: dose 100 mg/kg
Mus musculus [26] = assay: Anticonvulsant activity in ip dosed Mus musculus CF1 albino (mouse) assessed as protection against electrically-induced seizure measured at 0.25 hr by 6Hz psychomotor seizure test; type: functional
Mus musculus [27] = assay: Anticonvulsant activity in Mus musculus CF1 albino (mouse) assessed as protection against electrically-induced seizure at 100 mg/kg, ip measured at 0.5 hr by 6Hz psychomotor seizure test; type: functional, organism-based; design: dose 100 mg/kg
Mus musculus [28] = assay: Anticonvulsant activity in Mus musculus CF1 albino (mouse) assessed as protection against electrically-induced seizure at 100 mg/kg, ip measured at 0.25 hr by 6Hz psychomotor seizure test; type: functional, organism-based; design: dose 100 mg/kg
[29] = Neurotoxicity in ip dosed Mus musculus CF1 albino (mouse) assessed as minimal motor impairment measured at 0.25 hr by rotorod test; type: toxicity, organism-based; details: in vivo
[30] = Protective index, ratio of TD50 for neurotoxicity in ip dosed Mus musculus CF1 albino (mouse) to ED50 for protection against electrically-induced seizure by 6Hz psychomotor seizure test in ip dosed Mus musculus CF1 albino (mouse); type: toxicity, organism-based; details: in vivo, read-out: Ratio TD50/ED50

| SMILES | Activity (Mus musculus [1]) | Activity (Mus musculus [2]) | ED50 (Mus musculus [3]) | Activity (Mus musculus [4]) | Activity (Mus musculus [5]) | Activity (Mus musculus [6]) | Activity (Mus musculus [7]) | Activity (Mus musculus [8]) | Activity (Mus musculus [9]) | Activity (Mus musculus [10]) | Activity (Mus musculus [11]) | Activity (Mus musculus [13]) | Activity (Mus musculus [14]) | Activity (Mus musculus [16]) | Activity (Mus musculus [17]) | Activity (Mus musculus [20]) | Activity (Mus musculus [21]) | Activity (Mus musculus [22]) | Activity (Mus musculus [23]) | Activity (Mus musculus [25]) | also measured |
| --- | --- | --- | --- | --- | --- | --- | --- | --- | --- | --- | --- | --- | --- | --- | --- | --- | --- | --- | --- | --- | --- |
| COc1ccc(-c2nc(-c3ccccc3)c[nH]2)cc1 | Active | Active | 142 mg/kg | Toxic | Active | inactive | Non-toxic | inactive | inactive | Non-toxic | Non-toxic | inactive | inactive | inactive | inactive | inactive | Active | Non-toxic | Toxic |  | selectivity ratio [12]: 4.3; ED50 (Mus musculus [15]): 46.8 mg/kg; selectivity ratio [18]: 1.4; Activity (Mus musculus [19]): inactive |
| c1ccc(-c2c[nH]c(-c3ccccc3)n2)cc1 | Active | Active | 161 mg/kg |  | Active | inactive | Non-toxic | inactive | inactive |  | Non-toxic | inactive | inactive | inactive | Active | inactive | inactive | Non-toxic | Toxic | inactive | Activity (Mus musculus [24]): Active; ED50 (Mus musculus [26]): 47.2 mg/kg; ED50 (Mus musculus [15]): 61.7 mg/kg; Activity (Mus musculus [27]): Active; Activity (Mus musculus [19]): inactive; Activity (Mus musculus [28]): Active |
| Cc1ccc(-c2nc(-c3ccccc3)c[nH]2)cc1 | Active |  |  | Non-toxic | Active | inactive | Non-toxic | inactive | inactive | Non-toxic | Non-toxic | inactive | inactive | inactive | inactive | inactive | inactive | Non-toxic | Non-toxic | inactive | TD50 at 0.25 h [29]: 188 mg/kg; ED50 (Mus musculus [26]): 62.4 mg/kg; selectivity ratio [30]: 3 |
| CC(C)c1ccc(-c2nc(-c3ccccc3)c[nH]2)cc1 | Active | inactive |  | Non-toxic | Active | inactive | Non-toxic | inactive | inactive | Non-toxic | Non-toxic |  | inactive | inactive | inactive | inactive | inactive | Non-toxic | Non-toxic | inactive | Activity (Mus musculus [24]): inactive |
| COc1ccc(-c2nc(-c3ccc(Cl)cc3)c[nH]2)cc1 | Active |  | 158 mg/kg | Non-toxic | Active | inactive | Non-toxic | inactive | inactive | Non-toxic | Non-toxic | inactive | inactive | inactive | inactive | inactive | inactive | Non-toxic | Non-toxic | Active | TD50 at 0.25 h [29]: 238 mg/kg; selectivity ratio [12]: 3.5; ED50 (Mus musculus [15]): 68.8 mg/kg; selectivity ratio [18]: 1.5; Activity (Mus musculus [19]): inactive |
